Cf = 5(6)-carboxyfluorescein
What was measured:
E. coli strain D22 = test system: E. coli strain D22; design: method as in PMID 9219367; conditions: E. coli strain D22, which has a defective cell envelope; ref [46]; cited from earlier work
Source text: In the original report, the authors used E. coli strain D22, which has a defective cell envelope.

E. coli strain JM83 = test: E. coli permeabilization assay (β-galactosidase leakage); assay type: cell-based
Method: The membrane permeabilizing activities of AMPs were determined using E. coli strain JM83 on the basis of β-galactosidase activity leaking from the cytoplasm, as described in detail in the electronic supplementary material. Living bacteria incubated with medium only were used as a negative control and bacteria killed by treatment with 5 µM synthetic cecropin B (Sigma-Aldrich) were used as a positive control (100% permeabilization). Before setting the perforation level of the positive control to 100%, the perforation value obtained for the negative control was subtracted from all other measurements. All assays were carried out three times, each time in triplicate. The results were presented as means ± s.d. (n = 3) based on statistical analysis using Student's t-test. […]
i) Peptide synthesis and modification.
The peptide sequences shown in Tabl es S1 an d S4 were selected according to their repo rted structural and functional properties, synthesized and purified to >95%. […]
The membran e p ermeabilizing activities of AMPs were determined using E. coli strain JM83 on the basis of β-gal actosidase activit y leakin g from the c ytoplasm. […] The samples were incubated at 37°C for 90 min and the absorbance was measured at 405 nm , which is proportional to the amount of released β-gal act osidase. […]

Substance: abaecin: proline-rich peptide abaecin, species version not specified at the place (Cf-FVPYNPPRPGQSKPFPSFPGHGPFNPKIQWPYPLPNPGH-NH2)
- antibacterial activity (E. coli strain D22): antibacterial activity was demonstrated
- perforation of the bacterial envelope, abaecin alone (E. coli strain JM83; 20 µM abaecin, pH 6.8 phosphate buffer, 45 min, 37°C, 405 nm, relative to 5 µM cecropin B = 100%, n = 3): approximately 4.8%
- increase in membrane permeability, in words (E. coli strain JM83; peptide alone): only marginally increased

Source: article PMC4426631, “Insect antimicrobial peptides show potentiating functional interactions against Gram-negative bacteria” (Proceedings of the Royal Society B: Biological Sciences, 2015)
